Test results taken from patent US6930131B2, “Aryl substituted 3-ethoxy phenyl trifluoromethane sulfonamides for the treatment of non-insulin dependent diabetes mellitus (NIDDM)” (Wyeth, priority 2002, dated 2005).

| SMILES | melting point [°C] |
| --- | --- |
| O=S(=O)(Nc1ccc(CCOCc2ccccc2-c2ccccc2)cc1)C(F)(F)F [Example 27, N-{4-[2-(Biphenyl-2-ylmethoxy)-ethyl]-phenyl}-C,C,C-trifluoromethanesulfonamide] | 79 to 81 |
| O=S(=O)(Nc1cccc(CCOCc2csc(-c3ccc(C(F)(F)F)cc3)n2)c1)C(F)(F)F [Example 52, C,C,C-Trifluoro-N-(3-{2-[2-(4-trifluoromethyl-phenyl)-thiazol-4-ylmethoxy]-ethyl}-phenyl)-methanesulfonamide] | 117 to 119 |
| O=S(=O)(Nc1cccc(CCOCc2ccc(-c3ccc(F)cc3)cc2F)c1)C(F)(F)F [Example 10, N-{3-[2-(3,4′-Difluoro-biphenyl-4-ylmethoxy)-ethyl]-phenyl}-C,C,C-trifluoro-methanesulfonamide] | 65 to 67 |
| O=S(=O)(Nc1cccc(CCOCc2csc(-c3ccc(C(F)(F)F)cn3)n2)c1)C(F)(F)F [Example 57, C,C,C-Trifluoro-N-(3-{2-[2-(5-trifluoromethyl-pyridin-2-yl)-thiazol-4-yl-methoxy]ethyl}-phenyl)-methanesulfonamide] | 116 to 117 |
| CC(C)(C)c1ccc(COCCc2cccc(NS(=O)(=O)C(F)(F)F)c2)cc1 [Example 69, N-{3-[2-(4-tert-Butyl-benzyloxy)-ethyl]-phenyl}-C,C,C-trifluoro-methane sulfonamide] | 40 to 42 |
| O=S(=O)(Nc1cccc(CCOCc2ccc(-c3cccc(C(F)(F)F)c3)cc2F)c1)C(F)(F)F [Example 17, C,C,C-Trifluoro-N-{3-[2-(3-fluoro-3′-trifluoromethyl-biphenyl-4-yl-methoxy)-ethyl]-phenyl}-methanesulfonamide] | 60 to 61 |
| COc1ccc(-c2cccc(COCCc3cccc(NC(N)=O)c3)c2)cc1 [Example 39, {3-[2-(4′-Methoxy-biphenyl-3-ylmethoxy)-ethyl]-phenyl}-urea] | 87 to 89 |
| O=S(=O)(Nc1cccc(CCOCc2cccc(OCc3ccccc3)c2)c1)C(F)(F)F [Example 73, N-{3-[2-(3-benzyloxy-benzyloxy)-ethyl]-phenyl}-C,C,C-trifluoro-methanesulfonamide] | 62 to 63 |
| O=S(=O)(Nc1cccc(CCOCc2ccc(-c3ccc(OC(F)(F)F)cc3)cc2F)c1)C(F)(F)F [Example 18, C,C,C-Trifluoro-N-{3-[2-(3-fluoro-4′-trifluoromethoxy-biphenyl-4-yl-methoxy)-ethyl]-phenyl}-methanesulfonamide] | 114 to 115 |
| O=S(=O)(Nc1cccc(CCOCc2ccc(-c3ccc(F)cc3)cc2)c1)C(F)(F)F [Example 37, N-{3-[2-(4′-Fluoro-biphenyl-4-ylmethoxy)-ethyl]-phenyl)-C,C,C-trifluoro-methanesulfonamide] | 65 to 67 |
| O=S(=O)(Nc1cccc(CCOCc2nc(-c3ccc(C(F)(F)F)cc3)sc2Cl)c1)C(F)(F)F [Example 63, N-(3-{2-[5-Chloro-2-(4-trifluoromethyl-phenyl)-thiazol-4-ylmethoxy]-ethyl}-phenyl)-C,C,C-trifluoromethanesulfonamide] | 107 to 109 |
| O=S(=O)(Nc1cccc(CCOCc2ccc(C3CCCCC3)cc2)c1)C(F)(F)F [Example 68, N-{3-[2-(4-cyclohexyl-benzyloxy)-ethyl]-phenyl}-C,C,C-trifluoro-methane sulfonamide] | 90 to 92 |

The remaining lines, values ahead:

| melting point [°C] | SMILES |
| --- | --- |
| 99 to 101 | COc1ccc(-c2ccc(Cl)cc2)cc1COCCc1cccc(NS(=O)(=O)C(F)(F)F)c1 [Example 40, N-{3-[2-(4′-Chloro-4-methoxy-biphenyl-3-ylmethoxy)-ethyl]-phenyl}-C,C,C-trifluoromethanesulfonamide] |
| 48 to 50 | O=S(=O)(Nc1cccc(CCOCc2ccc(I)cc2)c1)C(F)(F)F [Example 74, N-{3-[2-(4-Iodo-benzyloxy)-ethyl]-phenyl}-C,C,C-trifluoro-methanesulfonamide] |
| 80 to 82 | COc1cccc(-c2ccc(COCCc3cccc(NS(=O)(=O)C(F)(F)F)c3)c(F)c2)c1 [Example 20, C,C,C-Trifluoro-N-{3-[2-(3-fluoro-3′-methoxy-biphenyl-4-yl-methoxy)ethyl]-phenyl}-methanesulfonamide] |
| 96 to 98 | COc1ccc(-c2ccc(COCCc3cccc(NS(=O)(=O)C(F)(F)F)c3)cc2)cc1 [Example 4, C,C,C-Trifluoro-N-{3-[2-(4′-methoxy-biphenyl-4-ylmethoxy)-ethyl]-phenyl}-methanesulfonamide] |
| 112 to 113 | O=S(=O)(Nc1cccc(CCOCc2csc(-c3ccccc3)n2)c1)C(F)(F)F [Example 58, C,C,C-Trifluoro-N-{3-[2-(2-phenyl-thiazol-4-ylmethoxy)-ethyl]phenyl}-methane sulfonamide] |
| 83 to 86 | O=S(=O)(Nc1cccc(CCOCc2noc(-c3ccc(C(F)(F)F)cc3)n2)c1)C(F)(F)F [Example 87, N-{3-[2-(5-(4-trifluoromethylphenyl)-[1,2,4]oxadiazol-3-ylmethoxy)-ethyl]-phenyl}-C,C,C-trifluoro-methanesulfonamide] |
| 88 to 90 | COc1ccc(-c2nc(COCCc3cccc(NS(=O)(=O)C(F)(F)F)c3)no2)cc1 [Example 85, N-{3-[2-(5-(4-methoxy-phenyl)-[1,2,4]oxadiazol-3-ylmethoxy)-ethyl]-phenyl}-C,C,C-trifluoro-methanesulfonamide] |
| 48 to 50 | O=S(=O)(Nc1cccc(CCOCc2ccc(Br)cc2F)c1)C(F)(F)F [Example 72, N-{3-[2-(4-Bromo-2-fluoro-benzyloxy)-ethyl]-phenyl}-C,C,C-trifluoro-methanesulfonamide] |
| 105 to 107 | O=S(=O)(Nc1cccc(CCOCc2ccc(-c3cccc(Cl)c3)cc2)c1)C(F)(F)F [Example 5, N-{3-[2-(3′-Chloro-biphenyl-4-ylmethoxy)-ethyl]-phenyl}-C,C,C-trifluoromethane sulfonamide] |
| 62 to 64 | O=S(=O)(Nc1cccc(CCOCc2noc(-c3cccc(C(F)(F)F)c3)n2)c1)C(F)(F)F [Example 83, N-{3-[2-(5-(3-trifluoromethyl-phenyl)-[1,2,4]oxadiazol-3-ylmethoxy)-ethyl]-phenyl}-C,C,C-trifluoro-methanesulfonamide] |
| 52 to 54 | COc1cccc(-c2nc(COCCc3cccc(NS(=O)(=O)C(F)(F)F)c3)no2)c1 [Example 84, N-{3-[2-(5-(3-methoxy-phenyl)-[1,2,4]oxadiazol-3-ylmethoxy)-ethyl]-phenyl}-C,C,C-trifluoro-methanesulfonamide] |
| 112 to 113 | COc1ccc(-c2nc(COCCc3cccc(NS(=O)(=O)C(F)(F)F)c3)cs2)cc1 [Example 59, C,C,C-Trifluoro-N-(3-{2-[2-(4-methoxy-phenyl)-thiazol-4-ylmethoxy]-ethyl}-phenyl)-methanesulfonamide] |
| 52 to 54 | O=S(=O)(Nc1cccc(CCOCc2cccc(-c3cc(Cl)cc(Cl)c3)c2)c1)C(F)(F)F [Example 34, N-{3-[2-(3′,5′-Dichloro-biphenyl-3-ylmethoxy)-ethyl]-phenyl)-C,C,C-trifluoro-methanesulfonamide] |
